Experimental data: US11203613B2, “Peptidomimetic proteasome inhibitors” (CORNELL UNIVERSITY, priority 2017, dated 2021)
Where “and” joins values, the source holds several entries; their conditions need not be identical. Equal values may be shown once. Read-outs that look alike come from different tables or passages of the source.

How the values were obtained:
Mtb20SOG = Mtb20SOG (Mycobacterium tuberculosis, UniProt P9WHT9); assay: biochemical
[1] = target: Human Constitutive (Hu C-20S) β5 Active Subunit (Homo sapiens, UniProt P28074); assay: IC50 determination, human constitutive 20S proteasome β5c (suc-LLVY-AMC hydrolysis); type: biochemical; conditions: Table 2; several values in a cell are repeat determinations; read-out: Hu c-20S IC50
[2] = Table 2, several values in a cell are repeat determinations

Chain of Mtb20SOG (P9WHT9 58-291): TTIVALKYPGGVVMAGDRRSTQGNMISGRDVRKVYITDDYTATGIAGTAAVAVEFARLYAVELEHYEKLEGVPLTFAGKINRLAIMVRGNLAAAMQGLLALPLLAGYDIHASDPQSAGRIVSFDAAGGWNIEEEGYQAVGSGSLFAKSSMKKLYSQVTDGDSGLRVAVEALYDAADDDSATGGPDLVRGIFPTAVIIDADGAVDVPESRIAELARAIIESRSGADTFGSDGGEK

For CC[C@H]1CCCCN1C(=O)C[C@H](NC(=O)CCC(C)C)C(=O)N[C@@H](C)c1ncc(-c2ccc(F)cc2F)[nH]1 [CF-503213], the IC50 (Mtb20SOG; [2]) was 33 nM and 29 nM and the IC50 [1] was 4490 nM and 4430 nM.

CC(C)CCC(=O)N[C@@H](CC(=O)N1CCCCCC1)C(=O)N[C@@H](C)c1nc(-c2ccc(F)cc2F)c[nH]1 [CF-503214] was tested, and the IC50 (Mtb20SOG) was 667 nM and the IC50 [1] was 10200 nM.

In the case of CC[C@H]1CCCCN1C(=O)C[C@H](NC(=O)CCC(C)C)C(=O)N[C@@H](C)c1nc2ccccc2[nH]1 [CF-503216], the IC50 (Mtb20SOG) is reported as 296 nM and 333 nM and the IC50 [1] is reported as 14800 nM and 14500 nM.

For CC(C)CCC(=O)N[C@@H](CC(=O)N1CCCCC1C(C)C)C(=O)N[C@@H](C)c1ncc(-c2ccc(F)cc2F)[nH]1 (stereo partly shown) [CF-503218], the IC50 (Mtb20SOG; [2]) was 136 nM and 168 nM and the IC50 [1] was 3180 nM.

CC[C@H]1CCCCN1C(=O)C[C@H](NC(=O)CCC(C)C)C(=O)N[C@@H](C)c1nc2cc(F)cc(F)c2[nH]1 [CF-503219] was tested, and the IC50 (Mtb20SOG) was 793 nM and 840 nM and the IC50 [1] was 4060 nM and 4500 nM.

For CC[C@H]1CCCCN1C(=O)C[C@H](NC(=O)CCC(C)(C)C)C(=O)N[C@@H](C)c1nc2c(F)cccc2[nH]1 [CF-503222], the IC50 (Mtb20SOG; [2]) was 15 nM and 29 nM and 41 nM and the IC50 [1] was 11200 nM and 12300 nM and 11700 nM.

CC[C@H]1CCCCN1C(=O)C[C@H](NC(=O)CCC(C)C)C(=O)N[C@@H](C)c1nc2c(F)cccc2[nH]1 [CF-503223] was tested, and the IC50 (Mtb20SOG) was 28 nM and 33 nM and the IC50 [1] was 10600 nM and 10200 nM.

In the case of CC(C)CCC(=O)N[C@@H](CC(=O)N1CCCC[C@@H]1C)C(=O)N[C@@H](C)c1nc2c(F)cccc2[nH]1 [CF-503225], the IC50 (Mtb20SOG; [2]) is reported as 97 nM and 118 nM and the IC50 [1] is reported as 16200 nM and 16900 nM.

C[C@H](NC(=O)[C@H](CC(=O)N1CCCC[C@@H]1C)NC(=O)CCC(C)(C)C)c1nc2c(F)cccc2[nH]1 [CF-503227] was tested, and the IC50 (Mtb20SOG; [2]) was 79 nM and 81 nM and the IC50 [1] was 4830 nM and 6490 nM.

CC[C@H]1CCCCN1C(=O)C[C@H](NC(=O)CCC(C)C)C(=O)N[C@@H](C)c1nc2cc(F)c(F)cc2[nH]1 [CF-503229] gave an IC50 (Mtb20SOG) of 6000 nM and an IC50 [1] of 5000 nM.

For CC[C@H]1CCCCN1C(=O)C[C@H](NS(=O)(=O)CCC(C)C)C(=O)N[C@@H](C)c1nc2c(F)cccc2[nH]1 [CF-503230], the IC50 (Mtb20SOG; [2]) was 400 nM and 520 nM and the IC50 [1] was 17800 nM and 8600 nM.

C[C@H](NC(=O)[C@@H](N)CC(=O)N1CCC[C@@H]1c1ccccc1)c1ncc(-c2ccccc2F)[nH]1 [CF-503240] was tested, and the IC50 (Mtb20SOG; [2]) was 8500 nM and the IC50 [1] was 94000 nM.

For C[C@H](NC(=O)[C@H](CC(=O)N1CCC[C@@H]1c1ccccc1)Nc1nc2ccccc2o1)c1ncc(-c2ccccc2F)[nH]1 [CF-503242], the IC50 (Mtb20SOG; [2]) was 753 nM and 677 nM and the IC50 [1] was 16800 nM and 20600 nM.

Cc1cc(C(=O)N[C@@H](CC(=O)N2CCCC[C@@H]2C)C(=O)N[C@@H](C)c2nc3c(F)cccc3[nH]2)no1 [CF-503274] gave an IC50 (Mtb20SOG) of 69 nM and an IC50 [1] of 7090 nM.

With CC[C@H]1CCCCN1C(=O)C[C@H](NC(=O)CCc1ccccc1)C(=O)N[C@@H](C)c1nc2c(F)cccc2[nH]1 [CF-503291] the IC50 (Mtb20SOG) was 7 nM and 6 nM and the IC50 [1] was 2640 nM and 3390 nM.

CC[C@H]1CCCCN1C(=O)C[C@H](NC(=O)NCc1ccccc1)C(=O)N[C@@H](C)c1nc2c(F)cccc2[nH]1 [CF-503304] was tested, and the IC50 (Mtb20SOG) was 359 nM and 327 nM and the IC50 [1] was 9360 nM and 9400 nM.

In the case of CC[C@H]1CCCCN1C(=O)C[C@H](NC(=O)CC1CC1)C(=O)N[C@@H](C)c1nc2c(F)cccc2[nH]1 [CF-503318], the IC50 (Mtb20SOG) is reported as 112 nM and the IC50 [1] is reported as 16900 nM.

With CC[C@H]1CCCCN1C(=O)C[C@H](NC(=O)CC(F)(F)F)C(=O)N[C@@H](C)c1nc2c(F)cccc2[nH]1 [CF-503319] the IC50 (Mtb20SOG) was 320 nM and the IC50 [1] was 4200 nM.

With CC[C@H]1CCCCN1C(=O)C[C@H](Nc1nc2ccccc2o1)C(=O)N[C@@H](C)c1nc2c(F)cccc2[nH]1 [CF-503321] the IC50 (Mtb20SOG; [2]) was 271 nM and 374 nM and the IC50 [1] was 4500 nM and 5200 nM.

For CC[C@H]1CCCCN1C(=O)C[C@H](NC(=O)CCN(C)C)C(=O)N[C@@H](C)c1nc2c(F)cccc2[nH]1 [CF-503356], the IC50 (Mtb20SOG) was 6400 nM and the IC50 [1] was 6400 nM.

In the case of CC[C@H]1CCCCN1C(=O)C[C@H](Nc1nc2cc(C)ccc2o1)C(=O)N[C@@H](C)c1nc2c(F)cccc2[nH]1 [CF-503357], the IC50 (Mtb20SOG) is reported as 260 nM and the IC50 [1] is reported as 1900 nM.

In the case of CC[C@H]1CCCCN1C(=O)C[C@H](Nc1nc2ccc(C)cc2o1)C(=O)N[C@@H](C)c1nc2c(F)cccc2[nH]1 [CF-503360], the IC50 (Mtb20SOG; [2]) is reported as 125 nM and 190 nM and 353 nM and 361 nM and the IC50 [1] is reported as 1120 nM and 1430 nM and 1420 nM and 1440 nM.

For CC(NC(=O)C(CC(=O)N1CCCCC1C)NC(=O)C1CC1c1ccccc1)c1nc2c(F)cccc2[nH]1 (stereo not shown) [CF-503363], the IC50 (Mtb20SOG) was 50.7 nM and the IC50 [1] was 8000 nM.

In the case of CC(C)C1CC1C(=O)N[C@@H](CC(=O)N1CCCC[C@@H]1C)C(=O)N[C@@H](C)c1nc2c(F)cccc2[nH]1 (stereo partly shown) [CF-503381], the IC50 (Mtb20SOG; [2]) is reported as 41 nM and 36 nM and the IC50 [1] is reported as 2470 nM.

In the case of CC[C@H]1CCCCN1C(=O)C[C@H](NC(=O)[C@@H]1C[C@H]1c1ccccc1)C(=O)N[C@@H](C)c1nc2c(F)cccc2[nH]1 [CF-503382], the IC50 (Mtb20SOG; [2]) is reported as 166 nM and the IC50 [1] is reported as 12000 nM.

For CC[C@H]1CCCCN1C(=O)C[C@H](Nc1nc(C(C)C)no1)C(=O)NCc1nc2c(F)cccc2[nH]1 [CF-503417], the IC50 (Mtb20SOG; [2]) was 1350 nM and 1770 nM and the IC50 [1] was 3600 nM and 2990 nM.

With CC[C@H]1CCCCN1C(=O)C[C@H](Nc1nc(Cc2ccc(F)cc2)no1)C(=O)N[C@@H](C)c1nc2c(F)cccc2[nH]1 [CF-503419] the IC50 (Mtb20SOG) was 257 nM and 319 nM and the IC50 [1] was 1360 nM and 1200 nM.

In the case of CC[C@H]1CCCCN1C(=O)C[C@H](Nc1nc2ccccc2s1)C(=O)N[C@@H](C)c1nc2c(F)cccc2[nH]1 [CF-503445], the IC50 (Mtb20SOG; [2]) is reported as 1180 nM and the IC50 [1] is reported as 1190 nM.

For CC[C@H]1CCCCN1C(=O)C[C@H](NC(=O)N(C)Cc1ccccc1)C(=O)N[C@@H](C)c1nc2c(F)cccc2[nH]1 [CF-503451], the IC50 (Mtb20SOG) was 176 nM and 184 nM and the IC50 [1] was 3330 nM and 3700 nM.

With CC[C@H]1CCCCN1C(=O)C[C@H](NC(=O)N1CCOCC1)C(=O)N[C@@H](C)c1nc2c(F)cccc2[nH]1 [CF-503453] the IC50 (Mtb20SOG; [2]) was 4690 nM and the IC50 [1] was 4450 nM.

CC[C@H]1CCCCN1C(=O)C[C@H](NC(=O)N1CCCCC1)C(=O)N[C@@H](C)c1nc2c(F)cccc2[nH]1 [CF-503454] showed an IC50 (Mtb20SOG; [2]) of 765 nM and an IC50 [1] of 3000 nM.

In the case of CC[C@H]1CCCCN1C(=O)C[C@H](NC(=O)N(C)CC(C)C)C(=O)N[C@@H](C)c1nc2c(F)cccc2[nH]1 [CF-503457], the IC50 (Mtb20SOG; [2]) is reported as 2360 nM and the IC50 [1] is reported as 5030 nM.

CC(NC(=O)C(CC(=O)N1CCCCC1C)NC(=O)N(C)Cc1ccccc1)c1nc2c(F)cccc2[nH]1 (stereo not shown) [CF-503460] showed an IC50 (Mtb20SOG) of 272 nM and an IC50 [1] of 17200 nM.

For CC[C@H]1CCCCN1C(=O)C[C@H](NC(=O)OCc1ccccc1)C(=O)N[C@@H](C)c1nc2c(F)cccc2[nH]1 [CF-503461], the IC50 (Mtb20SOG; [2]) was 68 nM and 75 nM and the IC50 [1] was 5800 nM and 8200 nM.

CC(NC(=O)C(CC(=O)N1CCCCC1C)NC(=O)OCc1ccccc1)c1nc2c(F)cccc2[nH]1 (stereo not shown) [CF-503462] showed an IC50 (Mtb20SOG) of 120 nM and an IC50 [1] of 14800 nM.

Molecule CC(C)COC(=O)NC(CC(=O)N1CCCCC1C)C(=O)NC(C)c1nc2c(F)cccc2[nH]1 (stereo not shown) [CF-503463] has an IC50 (Mtb20SOG) of 1140 nM and an IC50 [1] of 2500 nM.

In the case of CC[C@H]1CCCCN1C(=O)C[C@H](NC(=O)C1CC(C)(C)C1)C(=O)N[C@@H](C)c1nc2c(F)cccc2[nH]1 [CF-503464], the IC50 (Mtb20SOG) is reported as 10 nM and 19 nM and the IC50 [1] is reported as 1260 nM.

With CC(NC(=O)C(CC(=O)N1CCCCC1C)NC(=O)C1CC(C)(C)C1)c1nc(-c2ccc(F)cc2F)c[nH]1 (stereo not shown) [CF-503474] the IC50 (Mtb20SOG) was 14 nM and the IC50 [1] was 5650 nM.

In the case of CC(NC(=O)C(CC(=O)N1CCCCC1C)NC(=O)C1CC1C(C)C)c1nc(-c2ccc(F)cc2F)c[nH]1 (stereo not shown) [CF-503475], the IC50 (Mtb20SOG) is reported as 34 nM and the IC50 [1] is reported as 4770 nM.

Molecule CC(C)c1noc(N[C@@H](CC(=O)N2CCCC[C@@H]2C)C(=O)N[C@@H](C)c2ncc(-c3ccc(F)cc3F)[nH]2)n1 [CF-503477] has an IC50 (Mtb20SOG; [2]) of 2050 nM and an IC50 [1] of 2290 nM.

For Cc1cc(C(=O)N[C@@H](CC(=O)N2CCCC[C@@H]2C)C(=O)NC(C)c2nc3ccccc3[nH]2)no1 (stereo partly shown) [drawing 395], the IC50 (Mtb20SOG; [2]) was 549 nM and 331 nM and the IC50 [1] was 71600 nM.
